Experimental findings from patent US20240197828A1, “Chimeric molecule to treat sepsis and other inflammatory conditions” (THE FEINSTEIN INSTITUTES FOR MEDICAL RESEARCH, priority 2022, published 2024) are described below.

For assay [1], the system named is RAW264.7 cells. Nature of the assay: eCIRP-induced cytokine release in RAW264.7 cells (ELISA of supernatants). The class given is cell-based, mouse. As to conditions: RAW264.7, rmCIRP 1 μg/mL, 4 hours, vs rmCIRP alone. The procedure: FIG. 2. Effects of MOP peptides on TNFα levels. RAW264.7 macrophages were cultured and treated with either volume-equivalent PBS, recombinant murine (rm) CIRP (eCIRP; 1 μg/mL), or rmCIRP with each respective peptide (10 μg/mL). After 4 hours, cell supernatants were assessed for TNFα levels by ELISA. Experiments were performed 3 times, and all data were used for analysis. Data are expressed as mean±SEM and compared by one-way ANOVA and SNK test. *p<0.05 vs. PBS, #p<0.05 vs. eCIRP.
FIG. 4. eCIRP-induced inflammation is attenuated by MOP3. RAW264.7 cells were treated according to respective groups: PBS (volume equivalent), rmCIRP (1 μg/mL), or rmCIRP with MOP3 at increasing doses. After 4 hours, cell supernatants were analyzed for TNFα levels by ELISA. Experiments were performed 3 times, and all data were used for analysis. Data are expressed as mean #SEM and compared by one-way ANOVA and SNK test. *p<0.05 vs. PBS, #p<0.05 vs. eCIRP.
Computational modeling was used to determine the likely domain of MFG-E8's binding to eCIRP. The known amino acid (AA) sequence of this domain was used to develop and test potential therapeutic peptides. An MFG-E8 derived oligopeptide, MOP3, was developed based on 15 AA from MFG-E8 discoidin 2 domain (mimicking MFG-E8's C-terminal) and tagged with the 3 AA, RGD, (mimicking MFG-E8's binding capacity for the integrin receptor at the N-terminal). Binding of MOP3 to CIRP was quantified using Surface Plasmon Resonance (SPR) analysis. Macrophages (RAW264.7 cells) were treated with FITC-recombinant mouse (rm)-CIRP or co-incubated MOP3 and FITC-rmCIRP with and without a. Br-integrin Ab. After 1 h, cells were fixed and analyzed for intracellular FITC-rmCIRP by flow cytometry. Macrophages were stimulated with rmCIRP or co-incubated mixture of MOP3 and rmCIRP. After 4 h, cell culture supernatants were analyzed for inflammatory cytokine, TNFα.
Mouse macrophage cell line, RAW264.7 cells were obtained from American Type Culture Collection (ATCC) and cultured in DMEM media with 10% FBS, 1% penicillin and streptomycin, and 1% glutamine. Cells were kept in 37° C. incubator under humidified conditions containing 5% CO2. […]
The mouse macrophage cell culture supernatants were analyzed for cytokine levels using ELISA kits (BD Biosciences, CA). […] TNF-α and IL-6 levels were measured in cell supernatants by ELISA in accordance with respective manufacturers' instructions (BD Biosciences, CA). Blood was collected, centrifuged at 4,000 RPM for 10 minutes, and sera was separated and analyzed for cytokine levels using ELISA kits (BD Biosciences, CA). TNF-α and IL-6 levels in the serum were measured by ELISA in accordance with respective manufacturers' instructions.

Assay [2] deals with WT mice. Put plainly: Sterile eCIRP-induced inflammation by rmCIRP injection in mice. The class given is in vivo, mouse. As to conditions: rmCIRP 5 mg/kg co-incubated 30 min with test substance, r.o. injection, 4 hours, vs eCIRP alone. Here is the method: FIG. 5A-5B. eCIRP-induced inflammation is attenuated by MOP3. WT mice were treated according to respective groups: PBS (volume equivalent), rmCIRP (5 mg/kg), or MOP3 (10 μg/kg) co-incubated with rmCIRP (5 mg/kg) for 30 mins prior to r.o. injection. After 4 hours, serum was measured for IL-6 (A) and TNFα (B) levels by ELISA. All experiments were performed 3 times, and all data were used for analysis (N=7-10). Data are expressed as mean±SEM and compared by one-way ANOVA and SNK test. *p<0.05 vs. PBS, #p<0.05 vs. eCIRP.
Adult (8-12 weeks) male, C57BL/6 wild-type (WT) mice (20-30 g) were purchased from Charles River Laboratories. […] For the design of in vivo models, sample size calculation was driven by variability, effect size, significance level and power as determined through performance of early feasibility and optimization pilot studies. […]
The mouse macrophage cell culture supernatants were analyzed for cytokine levels using ELISA kits (BD Biosciences, CA). […] TNF-α and IL-6 levels were measured in cell supernatants by ELISA in accordance with respective manufacturers' instructions (BD Biosciences, CA). Blood was collected, centrifuged at 4,000 RPM for 10 minutes, and sera was separated and analyzed for cytokine levels using ELISA kits (BD Biosciences, CA). TNF-α and IL-6 levels in the serum were measured by ELISA in accordance with respective manufacturers' instructions. […]

“Also recorded” adds a separate entry of the source. Residues, ends and D or L forms follow the SMILES beside them.

With `CC(C)C[C@H](NC(=O)[C@H](CC(N)=O)NC(=O)[C@H](Cc1c[nH]c2ccccc12)NC(=O)[C@@H](NC(=O)[C@H](CCCCN)NC(=O)[C@H](Cc1ccc(O)cc1)NC(=O)[C@H](CO)NC(=O)[C@H](CO)NC(=O)[C@H](CO)NC(=O)[C@H](CC(=O)O)NC(=O)CNC(=O)[C@@H](N)CCCNC(=N)N)[C@@H](C)O)C(=O)N[C@@H](CCCNC(=N)N)C(=O)N[C@@H](C)C(=O)N[C@@H](Cc1ccccc1)C(=O)NCC(=O)N[C@@H](Cc1c[nH]c2ccccc12)C(=O)N[C@@H](Cc1ccc(O)cc1)C(=O)O` [MOP3, RGDSSSYKTWNLRAFGWY] (H-RGDSSSYKTWNLRAFGWY-OH; N-terminus and C-terminus assumed), the “TNFα levels in cell supernatants” value in assay [1] was “strong inhibitory effect; also recorded: significantly decreased TNFα levels”. Moreover, the “TNFα levels in cell supernatants” value in assay [1] (listed as peptide-3) is on record as “capable of attenuating TNFα release”. Moreover, in assay [2], the “serum IL-6 levels” value is recorded as “reduced systemic levels” and the “serum TNFα levels” value is on record as “reduced systemic levels”.
